Laboratory results taken from EP0435794A1, “Alkenyl- or heteroaryl thio, sulfone, sulfoxy herbicides” (RHONE-POULENC AGROCHIMIE, priority 1989, dated 1991).

Experiments:
Test in all cases: Exemple A: herbicide application, pre-emergence
Assay type in all cases: in vivo
Conditions in all cases: notation 0 à 5 after 24 days
Alopecurus myosuroïdes = system: Alopecurus myosuroïdes
Description: (§1) Exemple A - Application herbicide, en prélevée des espèces végétales
(§2) Dans des pots de 7 x 7 x 8 cm remplis de terre agricole légère, on sème un nombre de graines déterminé en fonction de l'espèce végétale et de la grosseur de la graine.
(§3) Les pots sont traités par pulvérisation de bouillie en quantité correspondant à une dose volumique d'application de 500 l/ha et contenant la matière active à la concentration désirée.
(§4) Le traitement avec la bouillie est donc effectué sur des graines non recouvertes de terre (on utilise le terme de bouillie pour désigner, en général, les compositions diluées à l'eau, telles qu'on les applique sur les végétaux).
(§5) La bouillie utilisée pour le traitement est une solution ou suspension de la matière active dans un mélange acétone/eau en proportions 50/50, en présence de 0,05 % en poids de cemulsol NP 10 (agent tensio-actif) constitué d'alkylphénol polyéthoxylé, notamment de nonylphénol polyéthoxylé) et 0,04 % en poids de tween 20 (agent tensio-actif constitué d'un oléate de dérivé polyoxyéthyléné du sorbitol).
(§6) Dans le cas d'une suspension, celle-ci est obtenue en mélangeant et broyant les ingrédients dans un microniseur de façon à obtenir une grosseur moyenne de particules inférieure à 40 microns.
(§7) Après traitement, on recouvre les graines d'une couche de terre d'environ 3 mm d'épaisseur.
(§8) Les pots sont alors placés dans des bacs destinés à recevoir l'eau d'arrosage, en subirrigation, et maintenus pendant 24 jours à température ambiante sous 70 % d'humidité relative.
(§9) Le relevé est effectué de la façon suivante:
(§10) Au bout de 24 jours, on mesure un pourcentage (D) des destructions du nombre de pieds dans le pot traité par rapport au nombre de plantes dans les pots non traités (témoin). On mesure, sur les plantes traitées restantes, le pourcentage de réduction de taille (RT) par rapport aux plantes témoin.
(§11) Le pourcentage du volume foliaire non détruit par le produit est donc donné par la formule: ([100-D] x [100-RT])/(100)= A [formula]
(§12) Cette valeur A est transformée en notation de 0 à 5 selon l'échelle suivante:
(§13) Les résultats obtenus sont présentés après l'exemple B pour des doses d'application de 4000 g/ha à 1000 g/ha.
(§14) Les espèces végétales utilisées dans ces exemples A et B sont: […]

Avena fatua = system: Avena fatua
Description: as §1, §2, §3, §4, §5, §6, §7, §8, §9, §10, §11, §12, §13, §14

Cyperus esculentus = system: Cyperus esculentus
Description: as §1, §2, §3, §4, §5, §6, §7, §8, §9, §10, §11, §12, §13, §14

Digitaria sanguinalis = system: Digitaria sanguinalis
Description: as §1, §2, §3, §4, §5, §6, §7, §8, §9, §10, §11, §12, §13, §14

Echinochloa crus galli = system: Echinochloa crus galli
Description: as §1, §2, §3, §4, §5, §6, §7, §8, §9, §10, §11, §12, §13, §14

Row | SMILES | ACTIVITE HERBICIDE DE PRELEVEE ALO (Alopecurus myosuroïdes; dose 4 Kg m.a./ha) | ACTIVITE HERBICIDE DE PRELEVEE AVE (Avena fatua; dose 4 Kg m.a./ha) | ACTIVITE HERBICIDE DE PRELEVEE CYP (Cyperus esculentus; dose 4 Kg m.a./ha) | ACTIVITE HERBICIDE DE PRELEVEE DIG (Digitaria sanguinalis; dose 4 Kg m.a./ha) | ACTIVITE HERBICIDE DE PRELEVEE ECH (Echinochloa crus galli; dose 4 Kg m.a./ha) | ACTIVITE HERBICIDE DE PRELEVEE ALO (Alopecurus myosuroïdes; dose 1 Kg m.a./ha) | ACTIVITE HERBICIDE DE PRELEVEE AVE (Avena fatua; dose 1 Kg m.a./ha) | ACTIVITE HERBICIDE DE PRELEVEE CYP (Cyperus esculentus; dose 1 Kg m.a./ha) | ACTIVITE HERBICIDE DE PRELEVEE DIG (Digitaria sanguinalis; dose 1 Kg m.a./ha) | ACTIVITE HERBICIDE DE PRELEVEE ECH (Echinochloa crus galli; dose 1 Kg m.a./ha)
1 | C=C(CS(=O)(=O)c1cccs1)c1cccc(Cl)n1 [compound 4, 2-(6-chloro 2-pyridyl) 1-(2-thiénylsulfonyl) 2-propène] | 5 (O à 10) | 3 (30 à 50) | 5 (O à 10) | 5 (O à 10) | 5 (O à 10) | – | – | – | – | –
2 | C=C(CS(=O)(=O)c1sccc1Br)c1cccc(F)c1 [compound 9, 1-[(3-bromo 2-thiényl)sulfonyl] 2-(3-fluorophényl)2-propène] | 5 (O à 10) | 5 (O à 10) | 4 (10 à 30) | 5 (O à 10) | 5 (O à 10) | – | – | – | – | –
3 | C=C(CS(=O)(=O)c1cccs1)c1cccc(F)c1 [compound 3, 2-(3-fluorophényl) 1-(2-thiénylsulfonyl) 2-propène] | – | – | – | – | – | 5 (O à 10) | 1 (70 à 90) | 5 (O à 10) | 5 (O à 10) | 5 (O à 10)
